Experimental data taken from ChEMBL document CHEMBL1212880, “Discovery of (2,4-dihydroxy-5-isopropylphenyl)-[5-(4-methylpiperazin-1-ylmethyl)-1,3-dihydroisoindol-2-yl]methanone (AT13387), a novel inhibitor of the molecular chaperone Hsp90 by fragment based drug design” (J Med Chem, 2010).
Values after ≈ are worked out from the molar mass of the structure shown. Blank lines part the entries; values can stand above or below the molecule they belong to. Active and inactive are the calls of the source. The calls are words filed in the database; no cut-off is given here.

Experiments:
hERG (KCNH2) [1] = target: T1, hERG (KCNH2) (Homo sapiens, UniProt Q12809); assay: in vitro; conditions: HEK293 cells expressing hERG
T1 sequence (Q12809 whole entry): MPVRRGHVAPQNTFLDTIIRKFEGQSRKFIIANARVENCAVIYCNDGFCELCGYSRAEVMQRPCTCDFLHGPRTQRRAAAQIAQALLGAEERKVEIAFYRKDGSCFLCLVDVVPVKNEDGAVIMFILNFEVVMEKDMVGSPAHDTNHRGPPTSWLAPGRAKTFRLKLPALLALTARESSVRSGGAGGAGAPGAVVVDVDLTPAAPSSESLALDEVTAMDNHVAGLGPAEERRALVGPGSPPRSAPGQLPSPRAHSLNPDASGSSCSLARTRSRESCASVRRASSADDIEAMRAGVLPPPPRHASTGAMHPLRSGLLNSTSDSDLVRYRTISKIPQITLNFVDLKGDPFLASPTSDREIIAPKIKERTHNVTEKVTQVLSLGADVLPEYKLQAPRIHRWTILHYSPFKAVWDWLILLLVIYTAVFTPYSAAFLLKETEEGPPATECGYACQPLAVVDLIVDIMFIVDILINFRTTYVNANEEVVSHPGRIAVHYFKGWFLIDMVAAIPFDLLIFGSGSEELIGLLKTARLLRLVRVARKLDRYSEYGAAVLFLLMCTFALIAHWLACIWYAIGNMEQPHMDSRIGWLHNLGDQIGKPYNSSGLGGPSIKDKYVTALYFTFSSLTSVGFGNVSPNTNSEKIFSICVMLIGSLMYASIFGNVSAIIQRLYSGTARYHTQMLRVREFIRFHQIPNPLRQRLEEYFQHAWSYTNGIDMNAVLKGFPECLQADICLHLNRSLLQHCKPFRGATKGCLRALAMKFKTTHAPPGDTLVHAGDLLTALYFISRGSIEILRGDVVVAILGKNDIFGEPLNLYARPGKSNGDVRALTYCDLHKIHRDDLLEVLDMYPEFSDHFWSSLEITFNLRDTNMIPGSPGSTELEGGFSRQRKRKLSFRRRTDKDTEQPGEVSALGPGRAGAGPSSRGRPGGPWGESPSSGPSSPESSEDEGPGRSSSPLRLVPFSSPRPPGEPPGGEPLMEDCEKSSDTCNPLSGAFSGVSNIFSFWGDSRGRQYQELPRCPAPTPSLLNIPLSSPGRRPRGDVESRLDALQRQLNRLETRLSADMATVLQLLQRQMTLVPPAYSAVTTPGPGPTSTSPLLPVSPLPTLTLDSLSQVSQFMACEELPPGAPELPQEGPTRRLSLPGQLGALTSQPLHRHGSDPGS
Description: Inhibition of human ERG expressed in HEK293 cells at 3 uM by patch clamp assay

hERG (KCNH2) [2] = target: T1, hERG (KCNH2); assay: in vitro; conditions: HEK293 cells expressing hERG; remark: listed apart in the source
Description: Inhibition of human ERG expressed in HEK293 cells at 30 uM by patch clamp assay

[3] = Dissociation constant, pKa of the compound; format: physicochemical
[4] = Protein binding in human plasma after 6 hrs by equilibrium dialysis method; format: ADME, cell-free; conditions: read-out: PPB (converted)
[5] = Solubility of the compound in acetate buffer at 15 mg at pH 5.5; format: physicochemical
[6] = Solubility of the compound in phosphate buffer at 15 mg at pH 6.5; format: physicochemical
[7] = Solubility of the compound in phosphate buffer at 15 mg at pH 5.5; format: physicochemical
[8] = Solubility of the compound in lactate buffer at 15 mg at pH 4.2; format: physicochemical
[9] = Chemical stability of the compound after 24 hrs; format: physicochemical
[10] = Chemical stability of the compound after 48 hrs; format: physicochemical
[11] = Chemical stability of the compound after 144 hrs; format: physicochemical
[12] = Thermal stability of the compound at 80 degC after 24 hrs; format: physicochemical
physchem = conditions: buffer, pH 7.4
[13] = Clearance in BALB/c mouse plasma at 10 mg/kg, iv; format: ADME, organism-based; set-up: dose 10 mg/kg, route intravenous
[14] = Drug level in human HCT116 cells xenografted nude BALB/c mouse tumor at 40 mg/kg, iv after 24 hrs; format: ADME, organism-based, Neoplasm, HCT-116; set-up: dose 40 mg/kg, route intravenous; conditions: read-out: Drug uptake
[15] = Intrinsic clearance in mouse liver S9 fraction; format: ADME, subcellular
HCT-116 [16] = assay: Antitumor activity against human HCT116 cells xenografted in BALB/c mouse assessed as inhibition of tumor growth at 80 mg/kg, ip qd for 8 days measured on day 10; format: functional; conditions: HCT-116, ip, route intraperitoneal
HCT-116 [17] = assay: Antitumor activity against human HCT116 cells xenografted in BALB/c mouse assessed as inhibition of tumor growth at 80 mg/kg, ip qd for 8 days measured on day 10 relative to control; format: functional; conditions: HCT-116, ip, route intraperitoneal
HCT-116 [18] = assay: Antitumor activity against human HCT116 cells xenografted in BALB/c mouse assessed as delay in tumor growth at 80 mg/kg, ip qd for 8 days; format: functional; conditions: route intraperitoneal
HCT-116 [19] = assay: Cytotoxicity against human HCT116 cells at 10 uM by Alamar blue assay; format: functional
Cytochrome P450 2C9 = Cytochrome P450 2C9 (Homo sapiens, UniProt P11712); assay: Binding affinity to CYP2C9; format: ADME
Chain of Cytochrome P450 2C9 (P11712 whole entry): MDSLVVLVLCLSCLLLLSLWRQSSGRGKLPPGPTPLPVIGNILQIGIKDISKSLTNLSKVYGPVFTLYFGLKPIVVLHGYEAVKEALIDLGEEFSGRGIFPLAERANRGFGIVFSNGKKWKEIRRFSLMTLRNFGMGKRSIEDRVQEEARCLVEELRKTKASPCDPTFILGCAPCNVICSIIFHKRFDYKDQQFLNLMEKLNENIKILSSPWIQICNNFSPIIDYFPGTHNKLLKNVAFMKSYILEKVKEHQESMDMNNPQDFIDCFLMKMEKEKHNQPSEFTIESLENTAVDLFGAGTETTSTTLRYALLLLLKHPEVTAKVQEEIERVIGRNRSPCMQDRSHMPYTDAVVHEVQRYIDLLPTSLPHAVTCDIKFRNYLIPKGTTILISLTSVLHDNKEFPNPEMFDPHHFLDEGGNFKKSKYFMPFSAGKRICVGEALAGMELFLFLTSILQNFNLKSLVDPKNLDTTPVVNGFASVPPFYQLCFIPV

Cytochrome P450 2C19 = Cytochrome P450 2C19 (Homo sapiens, UniProt P33261); assay: Binding affinity to CYP2C19; format: ADME
Chain of Cytochrome P450 2C19 (P33261 whole entry): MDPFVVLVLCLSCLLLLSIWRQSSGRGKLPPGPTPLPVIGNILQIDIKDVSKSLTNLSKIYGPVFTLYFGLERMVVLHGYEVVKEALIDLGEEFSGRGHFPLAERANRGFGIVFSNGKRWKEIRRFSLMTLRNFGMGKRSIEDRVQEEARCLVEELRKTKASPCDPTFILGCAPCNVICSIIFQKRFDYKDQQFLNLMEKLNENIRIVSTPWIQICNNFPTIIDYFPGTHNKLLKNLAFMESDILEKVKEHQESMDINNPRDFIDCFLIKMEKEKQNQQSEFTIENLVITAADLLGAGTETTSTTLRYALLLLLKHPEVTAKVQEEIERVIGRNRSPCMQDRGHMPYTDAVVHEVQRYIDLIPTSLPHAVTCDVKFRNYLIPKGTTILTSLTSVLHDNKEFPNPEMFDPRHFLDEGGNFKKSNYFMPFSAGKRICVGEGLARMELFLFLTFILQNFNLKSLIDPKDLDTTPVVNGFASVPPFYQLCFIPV

CYP3A4 = CYP3A4 (Homo sapiens, UniProt P08684); assay: Inhibition of CYP3A4 at 10 uM; format: ADME
Chain of CYP3A4 (P08684 whole entry): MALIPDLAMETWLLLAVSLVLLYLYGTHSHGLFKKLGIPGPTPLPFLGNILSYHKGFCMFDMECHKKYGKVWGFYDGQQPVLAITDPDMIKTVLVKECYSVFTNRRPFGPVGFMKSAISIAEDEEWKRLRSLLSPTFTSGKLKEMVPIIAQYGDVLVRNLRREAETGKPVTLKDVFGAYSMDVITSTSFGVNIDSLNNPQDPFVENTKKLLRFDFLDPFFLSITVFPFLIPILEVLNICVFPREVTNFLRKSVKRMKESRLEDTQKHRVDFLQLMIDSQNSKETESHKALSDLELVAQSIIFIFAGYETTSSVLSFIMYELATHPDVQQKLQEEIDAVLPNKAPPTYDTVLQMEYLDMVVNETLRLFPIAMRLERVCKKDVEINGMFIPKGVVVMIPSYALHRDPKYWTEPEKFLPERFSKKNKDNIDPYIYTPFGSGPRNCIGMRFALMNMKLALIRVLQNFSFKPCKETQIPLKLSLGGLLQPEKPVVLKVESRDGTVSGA

[20] = Protein binding in mouse plasma after 6 hrs by equilibrium dialysis method; format: ADME, cell-free; conditions: read-out: PPB (converted)
CYP2C9 = CYP2C9 (Homo sapiens, UniProt P11712); assay: Inhibition of CYP2C9 at 10 uM; format: ADME
Chain of CYP2C9 (P11712 whole entry): as the sequence (P11712 whole entry) above

CYP2C19 = CYP2C19 (Homo sapiens, UniProt P33261); assay: Inhibition of CYP2C19 at 10 uM; format: ADME
Chain of CYP2C19 (P33261 whole entry): as the sequence (P33261 whole entry) above

[21] = Clearance in BALB/c mouse plasma at 2 to 10 mg/kg, iv; format: ADME, organism-based; set-up: dose 2-10 mg/kg, route intravenous
[22] = Volume of distribution at steady state in BALB/c mouse plasma at 2 to 10 mg/kg, iv; format: ADME, organism-based; set-up: dose 2-10 mg/kg, route intravenous; conditions: read-out: Vdss
[23] = Half life in BALB/c mouse plasma at 2 to 10 mg/kg, iv; format: ADME, organism-based; set-up: dose 2-10 mg/kg, route intravenous
[24] = Half life in BALB/c mouse blood at 60 mg/kg, ip; format: ADME, organism-based; set-up: dose 60 mg/kg, route intraperitoneal
[25] = Half life in BALB/c mouse muscle at 60 mg/kg, ip; format: ADME, organism-based, Muscle tissue; set-up: dose 60 mg/kg, route intraperitoneal
[26] = Half life in human HCT116 cells xenografted BALB/c mouse tumor at 60 mg/kg, ip; format: ADME, organism-based, Neoplasm, HCT-116; set-up: dose 60 mg/kg, route intraperitoneal
HCT-116 [27] = assay: Induction of apoptosis in human HCT116 cells assessed as reduction of Raf-1 level at 30 nM after 18 hrs by immunoblotting; format: functional, cell-based
HCT-116 [28] = assay: Induction of apoptosis in human HCT116 cells assessed as reduction of CDK4 level at 30 nM after 18 hrs by immunoblotting; format: functional, cell-based
HCT-116 [29] = assay: Induction of apoptosis in human HCT116 cells assessed as upregulation of Hsp70 level at 10 nM after 18 hrs by immunoblotting; format: functional, cell-based
[30] = Oral bioavailability in BALB/c mouse; format: ADME, organism-based; conditions: in vivo
HCT-116 [31] = assay: Antitumor activity against human HCT116 cells xenografted in BALB/c mouse assessed as inhibition of tumor growth at 60 mg/kg, ip qd for 3 days then no dose for 3 days for four dosing cycles measured on day 21; format: functional; conditions: HCT-116, ip, route intraperitoneal
HCT-116 [32] = assay: Antitumor activity against human HCT116 cells xenografted in BALB/c mouse assessed as inhibition of tumor growth at 60 mg/kg, ip qd for 3 days then no dose for 3 days for four dosing cycles measured on day 21 relative to control; format: functional; conditions: HCT-116, ip, route intraperitoneal

SMILES: CC(C)c1cc(C(=O)N2Cc3ccc(OCCNCC(C)(C)C)cc3C2)c(O)cc1O
inhibition at 3 µM (hERG (KCNH2) [1]): 53%
inhibition at 30 µM (hERG (KCNH2) [2]): 92%

SMILES: CC(C)c1cc(C(=O)N2Cc3ccc(C4(O)CCN(C)CC4)cc3C2)c(O)cc1O
pKa [3]: 9.4
fraction unbound at 6 h [4]: 0.36
solubility [5]: > 30 mg/mL
solubility [6]: 15 mg/mL (≈ 36.5 mM)
solubility [7]: > 30 mg/mL
solubility [8]: > 30 mg/mL
Stability [9]: Stable
Stability [10]: Stable
Stability [11]: Stable
Stability [12]: Unstable
logD (physchem): 1.7
inhibition at 3 µM (hERG (KCNH2) [1]): 15%
inhibition at 30 µM (hERG (KCNH2) [2]): 34%

clearance [13]: 130 mL/min/kg
concentration at 24 h [14]: 6.5 µM
microsomal CLint ([15]; liver S9 fraction): 41 µL/min/mg
pKa [3]: 7.3
logD (physchem): 2.98
SMILES: CC(C)c1cc(C(=O)N2Cc3ccc(N4CCN(C)CC4)cc3C2)c(O)cc1O
inhibition in vivo at 80 mg/kg (HCT-116 [16]): 81%
inhibition in vivo at 80 mg/kg (HCT-116 [17]): 19%
Activity (HCT-116 [18]): 10.5 days
Activity (HCT-116 [19]): 0%
inhibition at 3 µM (hERG (KCNH2) [1]): 41%
inhibition at 30 µM (hERG (KCNH2) [2]): 87%

pKa [3]: 10.2
logD (physchem): 0.7
SMILES: CC(C)c1cc(C(=O)N2Cc3ccc(NC4CCNCC4)cc3C2)c(O)cc1O
inhibition at 3 µM (hERG (KCNH2) [1]): 10%
inhibition at 30 µM (hERG (KCNH2) [2]): 20%

pKa [3]: 4.3
SMILES: CC(C)c1cc(C(=O)N2Cc3ccc(N4CCOCC4)cc3C2)c(O)cc1O

Activity (Cytochrome P450 2C9): Active
Activity (Cytochrome P450 2C19): Active
SMILES: CC(C)c1cc(C(=O)N2Cc3ccc(OCCN)cc3C2)c(O)cc1O
inhibition at 3 µM (hERG (KCNH2) [1]): 11%
inhibition at 30 µM (hERG (KCNH2) [2]): 64%

inhibition at 10 µM (CYP3A4): < 50%
SMILES: CC(C)c1cc(C(=O)N2Cc3cccc(OCCN(C)C)c3C2)c(O)cc1O
inhibition at 3 µM (hERG (KCNH2) [1]): 43%
inhibition at 30 µM (hERG (KCNH2) [2]): 93%

pKa [3]: 6.8
fraction unbound at 6 h [4]: 0.36
fraction unbound at 6 h [20]: 0.29
logD (physchem): 2.1
SMILES: CC(C)c1cc(C(=O)N2Cc3ccc(C(=O)N4CCN(C)CC4)cc3C2)c(O)cc1O
inhibition at 3 µM (hERG (KCNH2) [1]): 21%
inhibition at 30 µM (hERG (KCNH2) [2]): 49%

pKa [3]: 6.9
logD (physchem): 3.3
SMILES: CC(C)c1cc(C(=O)N2Cc3ccc(OCCCN4CCOCC4)cc3C2)c(O)cc1O
inhibition at 3 µM (hERG (KCNH2) [1]): 51%
inhibition at 30 µM (hERG (KCNH2) [2]): 95%

CL ([15]; s9): 0.046 mL/min/kg
pKa [3]: 7.7
inhibition at 10 µM (CYP2C9): < 50%
inhibition at 10 µM (CYP2C19): < 50%
fraction unbound at 6 h [4]: 0.36
fraction unbound at 6 h [20]: 0.09
clearance [21]: 113 mL/min/kg
Vd [22]: 11 L/kg
half-life [23]: 0.9 h
half-life [24]: 4.7 h
half-life [25]: 3 h
half-life [26]: 65 h
bioavailability [30]: 31%
solubility [5]: > 30 mg/mL
solubility [6]: 15 mg/mL (≈ 36.6 mM)
solubility [7]: > 30 mg/mL
solubility [8]: > 30 mg/mL
Stability [9]: Stable
Stability [10]: Stable
Stability [11]: Stable
Stability [12]: Stable
logD (physchem): 2.7
SMILES: CC(C)c1cc(C(=O)N2Cc3ccc(CN4CCN(C)CC4)cc3C2)c(O)cc1O [ONALESPIB]
Activity (HCT-116 [27]): Active
Activity (HCT-116 [28]): Active
Activity (HCT-116 [29]): Active
inhibition in vivo at 60 mg/kg (HCT-116 [31]): 78%
inhibition in vivo at 60 mg/kg (HCT-116 [32]): 22%
inhibition at 3 µM (hERG (KCNH2) [1]): 7%
inhibition at 30 µM (hERG (KCNH2) [2]): 42%

pKa [3]: 8.4
fraction unbound at 6 h [4]: 0.36
logD (physchem): 1.6
SMILES: CC(C)c1cc(C(=O)N2Cc3ccc(N4CCNCC4)cc3C2)c(O)cc1O
inhibition at 3 µM (hERG (KCNH2) [1]): 13%
inhibition at 30 µM (hERG (KCNH2) [2]): 70%
